Measurements: patent US20260130879A1 (IMMUNIC AG, priority 2023, published 2026)

Key:
hDHODH = biological target: T1, hDHODH (Homo sapiens, UniProt Q02127); test: in vitro inhibition of hDHODH; type: biochemical
T1 construct: measured using an N-terminally truncated recombinant hDHODH enzyme
Experimental: The in vitro inhibition of hDHODH was measured using an N-terminally truncated recombinant hDHODH enzyme. Briefly, the hDHODH concentration was adjusted in a way that an average slope of approximately 0.2 AU/min served as the positive control (e.g., without inhibitor). The assay mixture contained 60 μM 2,6-dichloroindophenol, 50 μM decylubiquinone and 100 μM dihydroorotate. The hDHODH enzyme with or without at least six different concentrations of the compounds was added and measurements were performed in 50 mM TrisHCl, 150 mM KCl and 0.1% Triton X-100 at pH 8.0 and at 30° C. The reaction was started by adding dihydroorotate and measuring the absorption at 600 nm for 2 min. For the determination of the IC50 values, each data point was recorded in triplicate.

human Nurr1 = human Nurr1 (Homo sapiens, UniProt P43354); test: Hybrid Gal4-Nurr1 reporter gene assay in HEK293T cells
human Nurr1, sequence (P43354 360-595 limits assumed): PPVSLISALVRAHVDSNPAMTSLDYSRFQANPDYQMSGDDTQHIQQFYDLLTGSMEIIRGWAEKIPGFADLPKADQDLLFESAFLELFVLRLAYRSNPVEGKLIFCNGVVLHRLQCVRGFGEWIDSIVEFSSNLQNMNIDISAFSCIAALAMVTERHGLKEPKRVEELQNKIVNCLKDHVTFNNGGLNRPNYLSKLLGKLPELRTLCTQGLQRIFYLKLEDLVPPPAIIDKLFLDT
Experimental: Nurr1 modulation was determined in a Gal4 hybrid reporter gene assays in HEK293T cells (German Collection of Microorganisms and Cell Culture GmbH, DSMZ) using pFR-Luc (Stratagene, La Jolla, CA, USA; reporter), pRL-SV40 (Promega, Madison, WI, USA: internal control) and pFA-CMV-hNurr1-LBD, coding for the hinge region and ligand binding domain of the canonical isoform of human Nurr1. Cells were cultured in Dulbecco's modified Eagle's medium (DMEM), high glucose supplemented with 10% fetal calf serum (FCS), sodium pyruvate (1 mM), penicillin (100 U/mL), and streptomycin (100 μg/mL) at 37° C., and 5% CO2 and seeded in 96-well plates (3×10+ cells/well). […] Firefly luminescence was divided by Renilla luminescence and multiplied by 1000 resulting in relative light units (RLU) to normalize for transfection efficiency and cell growth. Fold activation was obtained by dividing the mean RLU of test compound by the mean RLU of the untreated control. All samples were tested in at least three biologically independent experiments in duplicates. For dose-response curve fitting and calculation of EC50 values, the equation “[Agonist] versus response (three parameters)” was used in GraphPad Prism (version 7.00, GraphPad Software, La Jolla, CA, USA).
Similarly as described in Part A, the Nurr1 modulation was determined in a Gal4 hybrid reporter gene assay at a fixed concentration of 3 μM.

T1 sequence (Q02127 29-395): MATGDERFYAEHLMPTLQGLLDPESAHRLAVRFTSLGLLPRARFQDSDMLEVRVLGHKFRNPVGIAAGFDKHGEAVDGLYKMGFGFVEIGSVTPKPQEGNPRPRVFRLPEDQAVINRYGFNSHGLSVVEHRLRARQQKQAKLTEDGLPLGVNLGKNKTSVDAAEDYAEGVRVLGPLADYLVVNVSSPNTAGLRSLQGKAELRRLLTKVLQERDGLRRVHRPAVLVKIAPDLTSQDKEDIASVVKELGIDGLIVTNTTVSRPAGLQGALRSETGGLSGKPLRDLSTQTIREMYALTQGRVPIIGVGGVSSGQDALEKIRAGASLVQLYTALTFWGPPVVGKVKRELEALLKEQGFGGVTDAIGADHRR

Structure (SMILES)	IC50 (hDHODH) [nM]	EC50 (human Nurr1) [nM]	Nurr1 agonism max. fold activation (range) (human Nurr1)	Fold Activation @ 3 μM (human Nurr1)	Fold Activation @ 0.3 μM (human Nurr1; 0.3 μM)
[2H]C([2H])([2H])Oc1cccc(-c2ccc(NC(=O)c3cscc3C(=O)NCC)cc2)c1 [6/56]	> 10000	1000 to 10000	+++ (+++: ≥3-fold)	–	–
[2H]C([2H])([2H])Oc1cccc(-c2c(F)c(F)c(NC(=O)c3ccsc3C(=O)NCC)c(F)c2F)c1 [6/15]	> 10000	100 to 1000	+ (+: ≥1.3-fold to <2-fold)	–	–
[2H]C([2H])([2H])Oc1ccccc1-c1c(F)c(F)c(NC(=O)c2cscc2C(=O)O)c(F)c1F [6/5]	< 10	< 100	+ (+: ≥1.3-fold to <2-fold)	–	–
[2H]C([2H])([2H])Oc1cccc(-c2c(F)c(F)c(NC(=O)c3ccsc3C(=O)NCCO)c(F)c2F)c1 [6/40]	> 10000	1000 to 10000	+ (+: ≥1.3-fold to <2-fold)	–	–
[2H]C([2H])([2H])Oc1cccc(-c2ccc(NC(=O)c3cscc3C(=O)O)cc2)c1 [6/50]	100 to 1000	< 100	++ (++: ≥2-fold to <3-fold)	–	–
[2H]C([2H])([2H])Oc1cccc(-c2c(F)c(F)c(NC(=O)c3ccsc3C(N)=O)c(F)c2F)c1 [6/14]	1000 to 10000	100 to 1000	+ (+: ≥1.3-fold to <2-fold)	–	–
C#CCOc1cccc(-c2ccc(NC(=O)c3cscc3C(=O)O)c(F)c2)c1 [6/52]	100 to 1000	< 100	++ (++: ≥2-fold to <3-fold)	–	–
[2H]C([2H])([2H])Oc1cccc(-c2ccc(NC(=O)c3cscc3C(N)=O)cc2)c1 [6/53]	> 10000	100 to 1000	+ (+: ≥1.3-fold to <2-fold)	–	–
[2H]C([2H])([2H])Oc1cccc(-c2c(F)c(F)c(NC(=O)C3=C(C(=O)N(C)C)CC(F)(F)C3)c(F)c2F)c1 [6/27]	1000 to 10000	1000 to 10000	+ (+: ≥1.3-fold to <2-fold)	–	–
[2H]C([2H])([2H])Oc1cccc(-c2c(F)c(F)c(NC(=O)c3ccsc3C(=O)NCC#N)c(F)c2F)c1 [6/39]	100 to 1000	1000 to 10000	++ (++: ≥2-fold to <3-fold)	–	–
C#CCOc1cccc(-c2ccc(NC(=O)c3cscc3C(=O)NCC)cc2)c1 [6/57]	> 10000	1000 to 10000	+ (+: ≥1.3-fold to <2-fold)	–	–
[2H]c1c([2H])c([2H])c(-c2c(F)c(F)c(NC(=O)C3=C(C(N)=O)CC(F)(F)C3)c(F)c2F)c([2H])c1[2H] [6/46]	1000 to 10000	100 to 1000	–	–	–
C#CCOc1cccc(-c2ccc(NC(=O)c3cscc3C(=O)O)cc2)c1 [6/51]	1000 to 10000	100 to 1000	+++ (+++: ≥3-fold)	–	–
C#CCOc1cccc(-c2ccc(NC(=O)c3cscc3C(N)=O)cc2)c1 [6/54]	> 10000	1000 to 10000	+ (+: ≥1.3-fold to <2-fold)	–	–
[2H]c1c([2H])c([2H])c(-c2c(F)c(F)c(NC(=O)c3ccsc3C(N)=O)c(F)c2F)c([2H])c1[2H] [6/45]	1000 to 10000	100 to 1000	–	–	–
[2H]C([2H])([2H])Oc1cccc(-c2ccc(N(C)C(=O)C3=C(C(=O)O)CCC3)c(F)c2)c1 [reference compound]	–	> 10000	–	–	–
C#CCOc1cccc(-c2c(F)c(F)c(NC(=O)c3ccsc3C(=O)NC)c(F)c2F)c1 [6/18]	–	–	–	+ (+: ≥1.3-fold to <2-fold)	–
[2H]C([2H])([2H])Oc1cccc(-c2c(F)c(F)c(NC(=O)c3ccsc3C(=O)NCC(F)F)c(F)c2F)c1 [6/41]	–	–	–	–	+ (+: ≥1.3-fold to <2-fold)
C#CCOc1cccc(-c2c(F)c(F)c(NC(=O)c3ccsc3C(=O)O)c(F)c2F)c1 [6/17]	–	–	–	+++ (+++: ≥3-fold)	–
[2H]C([2H])([2H])Oc1cccc(-c2cc(F)c(NC(=O)C3=C(C(=O)NOCCF)CCC3)c(F)c2)c1 [2/23]	–	100 to 1000	+ (+: ≥1.3-fold to <2-fold)	–	–
